“And” between values parts separate entries of the source, which are not always exact repeats. Identical values can stand only once. After the bases stand the sugars from the 5' end (letter, count) and the backbone: PS all phosphorothioate, else s phosphorothioate and o phosphodiester by linkage. Methylation of C is not given here. e = 2'-O-(2-methoxyethyl) (MOE); k = constrained ethyl (cEt); d = 2'-deoxy (DNA)

In the first data set the target is IRF4. The settings on record: ASO, MM.1R, 0.0625 µM.
Regarding CGACACGCGCCGCTCG (sugars k3 d10 k3, PS), the target mRNA inhibition is -6%.

The data set is the same for the next values; noted with them: ASO, MM.1R, 0.074 µM.
CAGGTTTCATTTCATT (sugars k3 d10 k3, PS): the target mRNA inhibition is -1%.

Take “CAGTTGTAAATGAGTC (sugars e1 k2 d9 k2 e2, PS)”: the target mRNA inhibition is 12%.

The same data set, now with this note: ASO, MM.1R, 0.222 µM.
Regarding CAGGTTTCATTTCATT (sugars k3 d10 k3, PS), the target mRNA inhibition was 13%.

On to “CAGTTGTAAATGAGTC (sugars e1 k2 d9 k2 e2, PS)”, for which the target mRNA inhibition is 34%.

The same data set, now with this note: ASO, MM.1R, 0.25 µM.
For the sequence CGACACGCGCCGCTCG (sugars k3 d10 k3, PS), the target mRNA inhibition is -10%.

Staying with this data set, now noted: ASO, MM.1R, 0.666 µM.
For CAGGTTTCATTTCATT (sugars k3 d10 k3, PS), the target mRNA inhibition is 10%.

For “CAGTTGTAAATGAGTC (sugars e1 k2 d9 k2 e2, PS)”, the target mRNA inhibition came out at 51%.

Still in this data set, the particulars now being: ASO, MM.1R, 1 µM.
Regarding “CAGTGACTTGCATCCA (sugars kkdddddddddkekek, PS)”, the target mRNA inhibition amounted to 26%.

In the case of “CAGTGATGTCAGGTTT (sugars e1 k2 d9 k2 e2, PS)”, the target mRNA inhibition came to 20%.

Take “CAGTGATGTCAGGTTT (sugars k3 d9 k3 e1, PS)”: the target mRNA inhibition was determined as 49%.

Take CAGTGTGATTAATTCT (sugars k3 d10 k3, PS): the target mRNA inhibition was determined as 17%.

“CAGTTGTAAATGAGTC (sugars e1 k2 d9 k2 e2, PS)”: the target mRNA inhibition worked out at 55%.

Turning to CATAAAGGACCCCGCC (sugars k3 d10 k3, PS), the target mRNA inhibition is -5%.

For CATTCGAGGTGATTCT (sugars k3 d10 k3, PS), the target mRNA inhibition stood at 11%.

Take CATTGCTAGATTCTCC (sugars k3 d10 k3, PS): the target mRNA inhibition was 18% and 30%.

As for CCACAATCAGCAAGTC (sugars k3 d10 k3, PS), the target mRNA inhibition was 0%.

As to CCACATGTCCCGTGGG (sugars k3 d10 k3, PS), the target mRNA inhibition was -28%.

Consider CCACGAAGATTCAAAA (sugars k3 d10 k3, PS), for which the target mRNA inhibition was -7%.

Regarding CCAGAGCAGTAAACGC (sugars k3 d10 k3, PS), the target mRNA inhibition came out at 11%.

Consider CCAGTACAGTCCACTC (sugars k3 d10 k3, PS), for which the target mRNA inhibition is -6%.

Consider CCCACATAACTCAGGC (sugars k3 d10 k3, PS), for which the target mRNA inhibition is -16%.

As to CCGGAGGAAGTCCCCT (sugars k3 d10 k3, PS), the target mRNA inhibition was 0%.

Take CCTAGGACTAAGGACA (sugars k3 d10 k3, PS): the target mRNA inhibition was -3%.

“CCTCAGTTTGTGAAGC (sugars kdddddddddkekeke, PS)”: the target mRNA inhibition was found to be 11%.

On to “CCTCAGTTTGTGAAGC (sugars kkdddddddddkekek, PS)”, for which the target mRNA inhibition stood at 15%.

Take CCTGTGCAAAACCAGT (sugars k3 d10 k3, PS): the target mRNA inhibition is -10%.

On to CCTTACCTCGCCCTGG (sugars k3 d10 k3, PS), for which the target mRNA inhibition is -31%.

With CCTTACCTGACAAGAA (sugars k3 d10 k3, PS), the target mRNA inhibition was -11%.

CGCACGGACGAACGCG (sugars k3 d10 k3, PS): the target mRNA inhibition was -17%.

Regarding CGCAGGAGCGCGGAGG (sugars k3 d10 k3, PS), the target mRNA inhibition was -28%.

For the sequence CGCCCGACCCTCCCCA (sugars k3 d10 k3, PS), the target mRNA inhibition is -24%.

As to CGCCGGCACAGGCGCG (sugars k3 d10 k3, PS), the target mRNA inhibition amounted to 14%.

Still in this data set, the particulars now being: ASO, MM.1R, 2 µM.
On to CAGGTTTCATTTCATT (sugars k3 d10 k3, PS), for which the target mRNA inhibition amounted to 39%.

In the case of “CAGTTGTAAATGAGTC (sugars e1 k2 d9 k2 e2, PS)”, the target mRNA inhibition was 70%.

The data set is the same for the next values; noted with them: ASO, MM.1R, 4 µM.
With CGACACGCGCCGCTCG (sugars k3 d10 k3, PS), the target mRNA inhibition was -13%.

The same data set, now with this note: ASO, SK-MEL-28, 0.185 µM.
Turning to CAGGTTTCATTTCATT (sugars k3 d10 k3, PS), the target mRNA inhibition worked out at 15%.

For the sequence CGCAGAGCCAGTAGGG (sugars k3 d10 k3, PS), the target mRNA inhibition is 16% and 4% and 12%.

The same data set, now with this note: ASO, SK-MEL-28, 4 µM.
For the sequence CAGGACCCGGCTCCCG (sugars k3 d10 k3, PS), the target mRNA inhibition was 14%.

For the sequence CAGGTAAGGGCCCCGT (sugars k3 d10 k3, PS), the target mRNA inhibition was found to be 70%.

On to CAGGTTTCATTTCATT (sugars k3 d10 k3, PS), for which the target mRNA inhibition is 60%.

CAGTCAAAGATTCATT (sugars k3 d10 k3, PS): the target mRNA inhibition came out at 40%.

Take CAGTTTGTGAAGCATC (sugars k3 d10 k3, PS): the target mRNA inhibition came to 78%.

For the sequence CATAACTCAGGCAAGG (sugars k3 d10 k3, PS), the target mRNA inhibition amounted to 36%.

Take CATCAATGATGGCAGT (sugars k3 d10 k3, PS): the target mRNA inhibition turned out to be 50%.

Regarding CATCACTGCAGTTCAC (sugars k3 d10 k3, PS), the target mRNA inhibition is 47%.

Take CATCCAAGAGTAGCGC (sugars k3 d10 k3, PS): the target mRNA inhibition was 73% and 63%.

As to CATCGAACTCCTGAGT (sugars k3 d10 k3, PS), the target mRNA inhibition stood at 31%.

Consider CATGGCAGTGGAGCTC (sugars k3 d10 k3, PS), for which the target mRNA inhibition was 87% and 82%.

For CATTACGAGAGGGTCT (sugars k3 d10 k3, PS), the target mRNA inhibition was 44%.

For the sequence CATTATCTACCTCAGT (sugars k3 d10 k3, PS), the target mRNA inhibition was determined as 35%.

Regarding CATTCTAACAGATAAC (sugars k3 d10 k3, PS), the target mRNA inhibition was -2%.

As for CATTGGTACGGGATTT (sugars k3 d10 k3, PS), the target mRNA inhibition was found to be 16%.

In the case of CATTTTATCATCCGAA (sugars k3 d10 k3, PS), the target mRNA inhibition is 55%.

Take CCACAGTTGAACCCAT (sugars k3 d10 k3, PS): the target mRNA inhibition amounted to 36%.

As for CCACATAACTCAGGCA (sugars k3 d10 k3, PS), the target mRNA inhibition was determined as 70%.

In the case of CCACCCTCCGTCTCAC (sugars k3 d10 k3, PS), the target mRNA inhibition is 33%.

As to CCACCTCCATTCTAAC (sugars k3 d10 k3, PS), the target mRNA inhibition is -15%.

As to CCACGAGGCACCGCAC (sugars k3 d10 k3, PS), the target mRNA inhibition was -19%.

Turning to CCACTATTCGAGAGAA (sugars k3 d10 k3, PS), the target mRNA inhibition amounted to 57%.

Regarding CCAGAGCACACAGACG (sugars k3 d10 k3, PS), the target mRNA inhibition stood at 36%.

For CCAGAGGACCACGCCC (sugars k3 d10 k3, PS), the target mRNA inhibition came out at 28%.

For CCATTACTTAGACATT (sugars k3 d10 k3, PS), the target mRNA inhibition amounted to 64%.

In the case of CCATTAGAAAAGCAGG (sugars k3 d10 k3, PS), the target mRNA inhibition is 80% and 78%.

As to CCATTGGAGGAGGGTT (sugars k3 d10 k3, PS), the target mRNA inhibition was 32%.

Consider CCCAGTCTACTGCTGT (sugars k3 d10 k3, PS), for which the target mRNA inhibition was 66%.

In the case of CCCATCTGTCTCAGTT (sugars k3 d10 k3, PS), the target mRNA inhibition was determined as 66%.

For CCCCAAAGAGAGTGGG (sugars k3 d10 k3, PS), the target mRNA inhibition is -11%.

As for CCCCAAGGCTACAGGC (sugars k3 d10 k3, PS), the target mRNA inhibition came to 25%.

With CCCGAATAGGACCCCT (sugars k3 d10 k3, PS), the target mRNA inhibition came out at 40%.

In the case of CCCGAGGCCGGAGACC (sugars k3 d10 k3, PS), the target mRNA inhibition amounted to 6%.

CCCTTCAGCCACGAGG (sugars k3 d10 k3, PS): the target mRNA inhibition was 8%.

As to CCCTTCCCCGCGACTC (sugars k3 d10 k3, PS), the target mRNA inhibition was found to be 19%.

CCGAAAAGACTGGAGT (sugars k3 d10 k3, PS): the target mRNA inhibition was 57%.

CCGAACTCTCCGCCTC (sugars k3 d10 k3, PS): the target mRNA inhibition is 36%.

In the case of CCGCAATTCTCCTCAA (sugars k3 d10 k3, PS), the target mRNA inhibition was 20%.

On to CCGCAGCATCGAACTC (sugars k3 d10 k3, PS), for which the target mRNA inhibition was 42%.

Regarding CCGGAGACCTTGAAGA (sugars k3 d10 k3, PS), the target mRNA inhibition came to 9%.

For the sequence CCGGGTGTGGCTGATC (sugars k3 d10 k3, PS), the target mRNA inhibition came to 16%.

For CCGTAGTCAGCTCCAT (sugars k3 d10 k3, PS), the target mRNA inhibition came to 73%.

As to CCGTGAAACAGCAGTT (sugars k3 d10 k3, PS), the target mRNA inhibition amounted to 56%.

Regarding CCTAAATCACCCTGGT (sugars k3 d10 k3, PS), the target mRNA inhibition came to 27%.

Consider CCTACATACATTAATA (sugars k3 d10 k3, PS), for which the target mRNA inhibition is -7%.

Take CCTAGATAACATGAGA (sugars k3 d10 k3, PS): the target mRNA inhibition was 26%.

Turning to CCTCAAAGCTGTGAAA (sugars k3 d10 k3, PS), the target mRNA inhibition turned out to be 20%.

Consider CCTCAACCGCTGAACT (sugars k3 d10 k3, PS), for which the target mRNA inhibition came to 30%.

In the case of CCTCAGACTGTGCTGC (sugars k3 d10 k3, PS), the target mRNA inhibition was determined as 30%.

As for CCTCAGGGAATCCCTT (sugars k3 d10 k3, PS), the target mRNA inhibition came out at 30%.

Take CCTCCTTTAGTGTCGC (sugars k3 d10 k3, PS): the target mRNA inhibition came to 65%.

CCTCGCTCAAAGACCA (sugars k3 d10 k3, PS): the target mRNA inhibition amounted to 50%.

In the case of CCTGAACATGACTGGG (sugars k3 d10 k3, PS), the target mRNA inhibition is 38%.

For CCTGAGACAAGTGCTA (sugars k3 d10 k3, PS), the target mRNA inhibition came to 43%.

Consider CCTGAGAGTAAACTTG (sugars k3 d10 k3, PS), for which the target mRNA inhibition was found to be 18%.

CCTGAGTATTTCATAG (sugars k3 d10 k3, PS): the target mRNA inhibition came out at 42%.

With CCTGTCACCTGGCAAC (sugars k4 d8 k4, PS), the target mRNA inhibition stood at 37%.

In the case of CCTTAGGATAATATAC (sugars k3 d10 k3, PS), the target mRNA inhibition came to 23%.

CGAAAAGTCAAAATAC (sugars k3 d10 k3, PS): the target mRNA inhibition was 0%.

Turning to CGAGCGGTGAAACTGA (sugars k3 d10 k3, PS), the target mRNA inhibition was determined as 33%.

Regarding CGCAGAGCCAGTAGGG (sugars k3 d10 k3, PS), the target mRNA inhibition was found to be 67%.

Turning to CGCCAGTGACCACGAG (sugars k3 d10 k3, PS), the target mRNA inhibition was found to be 42%.

Take CGCCGAAGTCAACAGG (sugars k3 d10 k3, PS): the target mRNA inhibition is 44%.

The data set is the same for the next values; noted with them: ASO, SK-MEL-28, 5 µM.
On to CAGGTTTCATTTCATT (sugars k3 d10 k3, PS), for which the target mRNA inhibition worked out at 71%.

For the sequence CGCAGAGCCAGTAGGG (sugars k3 d10 k3, PS), the target mRNA inhibition was 56% and 59% and 77%.

Still in this data set, the particulars now being: ASO, SK-MEL-28, 15 µM.
In the case of CAGGTTTCATTTCATT (sugars k3 d10 k3, PS), the target mRNA inhibition was 91%.

As for CGCAGAGCCAGTAGGG (sugars k3 d10 k3, PS), the target mRNA inhibition was 81% and 82% and 91%.

These data come from the OligoGym collection.
